Measured values as given in patent US20150252013A1, “TREATMENT OF MULTIPLE SCLEROSIS AND PSORIASIS USING PRODRUGS OF METHYL HYDROGEN FUMARATE” (XenoPort, Inc., priority 2012, published 2015).
Counter-ions that a name gives are not always drawn. Like-named read-outs stand apart in the source and are kept apart here.

Tests used:
[1] = tested on: C57BL/6 mice; assay: MOG35-55 mouse EAE model of multiple sclerosis; format: in vivo; settings: oral 90 mg-eq MHF/kg twice daily, Days 3 to 29
Protocol: (§1) C57BL/6 mice (6 females) were injected subcutaneously with MOG35-55 peptide in CFA with Mycobacterium tuberculosis. Pertussis toxin ([…]) was injected IV on Day 0 and Day 2 post-immunization. Animals received oral XP23829 or DMF (90 mg-eq MHF/kg twice daily) or vehicle on Days 3 to 29. Daily EAE clinical disease scores (5 point scale) were recorded. End of study MHF blood levels were determined by LC/MS/MS.

[2] = Toxicokinetics at steady state in rats; format: in vivo, rat
Protocol: (§2) Gastrointestinal toxicity was assessed by gross necropsy and histopathology. Toxicokinetics were assessed at steady state in parallel cohorts.

[3] = tested on: Balb/c mice; assay: Imiquimod (IMQ) mouse model of psoriasis; format: in vivo; settings: Day -5 to Day 5
From the text: Balb/c mice (10 males/group) received daily topical IMQ (5% cream) on shaved back and right ear for 5 days. […] Erythema score was the primary outcome measure.

[4] = tested on: GST activity in the forestomach tissue of rats; assay: Glutathione S transferase (GST) activity of the cytosolic extracts of rat forestomach after oral dosing; format: in vivo; settings: rat forestomach cytosol; oral gavage 180 mg-equivalents of MMF/kg once per day for 14 days; relative to DMF
Protocol: wherein SARprodrug is the ratio of (i) the GST activity in the forestomach tissue of rats treated with the MMF prodrug (GSTAprodrug) to (ii) the GST activity in the forestomach tissue of rats treated with a non-irritating control solution comprised of 0.5 wt % methylcellulose and 0.1 wt % Tween 80 in 10 mM sodium acetate buffer, pH 4.5 (GSTAcontrol); and SARDMF is the ratio of (i) the GST activity in the forestomach tissue of rats treated with DMF (GSTADMF) to (ii) the GST activity in the forestomach tissue of rats treated with a non-irritating control solution comprised of 0.5 wt % methylcellulose and 0.1 wt % Tween 80 in 10 mM sodium acetate buffer, pH 4.5 (GSTAcontrol). The SARprodrug is proportional to the amount of GST isozymes induced by the MMF prodrug treatment while the SARDMF is proportional to the amount of GST isozymes induced by DMF prodrug treatment. A detailed description of how to determine the GSTArel is provided in Example 1 herein. […]
Total cytosolic GST activity is determined by measuring the conjugation of 1-chloro-2,4-dinitrobenzene (CDNB) with reduced glutathione. […] The formation of the conjugate is monitored spectrophotometrically by measuring the rate of increase in absorbance at 340 nm over a period of 3 minutes. The rate of increase is measured in μmole/min production of GST-CDNB and is directly proportional to the GST activity in the sample. […]

[5] = tested on: rat stomach; assay: Gastrointestinal irritation evaluation in rats (Annamalai-Ma gastrointestinal irritation rat model); format: in vivo; settings: average stomach score (0-5 scale, Table 1) from at least 5 rats; oral, once per day for 4 consecutive days
Protocol: In order to assess gastrointestinal irritation using this model, rats are treated orally with either vehicle or the MHF prodrug to be tested (n=10 per group) at 180 mg-equivalents MHF/kg of animal body weight, dosed once per day for 4 days, followed by necropsy and gastrointestinal evaluation at 24 hrs after the final dose. Evans Blue dye is injected IV (tail vein) to visually emphasize any lesions in the gastrointestinal tissue.
Rats were dosed once per day for 4 consecutive days with 180 mg-equivalents MHF/kg body weight per day of a number of MHF prodrugs. The animals were fasted overnight prior to necropsy. On Day 5, to help visualize lesions, 1 mL of 1% Evan's blue in saline was injected into the tail vein 30 minutes prior to euthanasia. All animals were euthanized by inhalation of carbon dioxide. A partial necropsy, limited to the abdominal cavities, was performed. The stomach and small intestine were removed. Residual material was washed away, using an irrigation syringe filled with saline. The stomach was cut along the larger curvature and washed gently with normal saline, and was examined for any lesions. The stomachs were scored in accordance with the scoring system outlined in Table 1. The stomach scores from at least 5 rats were used to calculate an average gastrointestinal irritation score, which scores are reported in Table 2.

[6] = MHF and intact prodrug blood levels in the mouse efficacy studies (LC/MS/MS); format: in vivo; settings: oral dosing
Protocol: as §1

[7] = tested on: CD rats; assay: 4-week GLP toxicity study in rats, gastrointestinal toxicity by gross necropsy and histopathology; settings: 500 mg/kg/day for 4 weeks
Protocol: (§3) (N,N-diethylcarbamoyl)methyl methyl (2E)but-2-ene-1,4-dioate was administered to CD rats (10/sex/dose) at 0 (vehicle), 150, 250, or 500 mg/kg/day and monkeys (3/sex/group) at 0 (vehicle), 25, 75, or 200 mg/kg/day for 4 weeks in GLP toxicity studies. In parallel studies, DMF was administered at doses intended to deliver similar MHF exposures: in rats (10/sex/dose) at 90, 150, and 300 mg/kg/day and monkeys (3/sex/group) at 0 (vehicle), 40, 90, or 250 mg/kg/day for 4 weeks. Gastrointestinal toxicity was assessed by gross necropsy and histopathology.

[8] = Toxicokinetics at steady state in monkeys; format: in vivo, monkey
Protocol: as §2

[9] = tested on: CD rats; settings: rat, in vivo, 300 mg/kg/day
Protocol: as §3

[10] = tested on: monkeys; assay: 4-week GLP toxicity study in monkeys, gastrointestinal toxicity by gross necropsy and histopathology
Protocol: as §3

Structure (SMILES): CCN(CC)C(=O)COC(=O)/C=C/C(=O)OC [(N,N-Diethylcarbamoyl)methyl methyl (2E)but-2-ene-1,4-dioate]
- reduction in EAE clinical score (Day 29 and overall AUC) compared to vehicle [1]: significant reduction
- conversion to MHF after absorption [2]: converted rapidly to MHF
- prodrug in the systemic circulation [2]: not detected
- MHF exposure compared with DMF at 300 mg/kg/day ([2]; 500 mg/kg/day): identical
- effect versus control in IMQ model (erythema score primary outcome) ([3]; oral 90 mg-eq/kg twice daily): significant
- relative GST enzyme activity (GSTArel) [4]: less than 80%
- GI Irritation Score (180 mg-eq of MHF/kg) [5]: 1.4
- intact prodrug in the systemic blood [6]: not detected
- glandular stomach findings [7]: no adverse effects on glandular stomach
- conversion to MHF after absorption [8]: converted rapidly to MHF
- prodrug in the systemic circulation [8]: not detected

Structure (SMILES): COC(=O)/C=C/C(=O)OCC(=O)N(C)C [(N,N-Dimethylcarbamoyl)methyl methyl (2E)but-2-ene-1,4-dioate]
- GI Irritation Score (180 mg-eq of MHF/kg) [5]: 2.4

Structure (SMILES): CCN(C(=O)COC(=O)/C=C/C(=O)OC)C1CC1 [(N-cyclopropyl-N-ethylcarbamoyl)methyl methyl 2(E)but-2-ene-1,4-dioate]
- melting point: 92.1 °C
- GI Irritation Score (180 mg-eq of MHF/kg) [5]: 1.0

Structure (SMILES): COC(=O)/C=C/C(=O)OCC(=O)N(C)C1CC1 [(N-cyclopropyl-N-methylcarbamoyl)methyl methyl 2(E)but-2-ene-1,4-dioate]
- melting point: 93.6 °C
- GI Irritation Score (180 mg-eq of MHF/kg) [5]: 2.6

Structure (SMILES): COC(=O)/C=C/C(=O)OC [Dimethyl Fumarate]
- reduction in EAE clinical score (Day 29 and overall AUC) compared to vehicle [1]: not statistically significant
- effect versus control in IMQ model (erythema score primary outcome) ([3]; oral 45 or 90 mg-eq MMF/kg twice daily (either dose)): not significant
- GI Irritation Score (180 mg-eq of MHF/kg) [5]: 4.6
- glandular stomach findings [9]: ulceration, necrosis and loss of mucosa of glandular stomach
- gastric mucosal hyperplasia (histopathology) compared to (N,N-diethylcarbamoyl)methyl methyl (2E)but-2-ene-1,4-dioate ([10]; monkeys, 4 weeks): greater gastric mucosal hyperplasia
- gastrointestinal irritation after 4 weeks of dosing ([10]; monkeys, 40, 90 or 250 mg/kg/day): dose dependent gastrointestinal irritation
- mortality ([10]; monkeys, high dose, 4 weeks): One high dose DMF monkey died from gastric ulceration

Structure (SMILES): COC(=O)/C=C/C(=O)OCC(=O)N1CCOCC1 [Methyl 2-morpholin-4-yl-2-oxoethyl (2E)but-2-ene-1,4-dioate]
- melting point: 124 to 126 °C
- GI Irritation Score (180 mg-eq of MHF/kg) [5]: 2.9

Structure (SMILES): COC(=O)/C=C/C(=O)OCCN1CCOCC1 [Methyl 2-morpholin-4-ylethyl (2E)but-2-ene-1,4-dioate]
- GI Irritation Score (180 mg-eq of MHF/kg) [5]: 0.0

Structure (SMILES): COC(=O)/C=C/C(=O)OCC(=O)N1CCCC1 [Methyl 2-oxo-2-pyrrolidinylethyl 2(E)but-2-ene-1,4-dioate]
- melting point: 102.1 °C
- GI Irritation Score (180 mg-eq of MHF/kg) [5]: 3.0

Structure (SMILES): COC(=O)/C=C/C(=O)OCCCN1CCOCC1 [Methyl 3-morpholin-4-ylpropyl (2E)but-2-ene-1,4-dioate]
- GI Irritation Score (180 mg-eq of MHF/kg) [5]: 0.0

Structure (SMILES): COC(=O)/C=C/C(=O)OCCCCN1CCOCC1 [Methyl 4-morpholin-4-ylbutyl (2E)but-2-ene-1,4-dioate]
- GI Irritation Score (180 mg-eq of MHF/kg) [5]: 0.6

Structure (SMILES): COC(=O)/C=C/C(=O)OCCCCCN1CCOCC1 [Methyl 5-morpholin-4-ylpentyl (2E)but-2-ene-1,4-dioate]
- GI Irritation Score (180 mg-eq of MHF/kg) [5]: 0.0

Structure (SMILES): COC(=O)/C=C/C(=O)OCCCCCCN1CCOCC1 [Methyl 6-morpholin-4-ylhexyl (2E)but-2-ene-1,4-dioate]
- GI Irritation Score (180 mg-eq of MHF/kg) [5]: 0.0
